Source: patent US20250367184A1, “CYP11A1 INHIBITOR FOR USE IN THE TREATMENT OF PROSTATE CANCER” (ORION CORPORATION, priority 2021, published 2025)

Experiments:
[1] = system: Patients with progressive mCRPC; assay: Clinical study of compound (1B) in progressive mCRPC patients: PSA change from baseline by activating AR gene alteration status; assay type: in vivo, human; conditions: for subjects with PSA decline of ≥50% (PSA response): oral 10-20 mg daily with corticosteroids, on ADT, prior ARSi
Text: Patients with progressive mCRPC were enrolled in the clinical trial to study the effect of a CYP11A1 inhibitor 2-5-((1-(methylsulfonyl)piperidin-4-yl)methoxy)-2-((5-(trifluoromethyl) isoindolin-2-yl)methyl)-4/-pyran-4-one (1B). The patients were on ADT therapy and had previously received androgen receptor signalling inhibitor (ARSi) therapy and chemotherapy, or were ineligible for chemotherapy. Three different daily dose levels of compound (1B) with hydrocortisone and fludro-cortisone were given orally to 13 subjects in the dose escalation part. Corticosteroid doses were allowed to be adjusted during the trial based on the subject's clinical condition. The daily doses were 10 mg (10 mg q.d), 15 mg (15 mg q.d) and 20 mg (20 mg q.d). In a separate dosing evaluation part, twice daily dosing of 5 mg and 10 mg of compound (1B), and different glucocorticoid replacement therapy, dexamethasone, and different hydrocortisone dosing regimen were evaluated in 16 patients. Subjects were allowed to continue the therapy until disease progression or intolerable toxicity. Anti-tumour activity was determined by measuring change in the PSA (prostate-specific antigen) value. A decrease in the PSA value indicates anti-tumour activity. PSA response in a patient was defined as at least 50% decline from the baseline PSA value.
(§1) Existence of activating AR-LBD somatic point mutations and AR gene amplification were analysed in plasma cfDNA samples obtained from the patients using the OncoBEAM® prostate cancer digital PCR assay panel (Sysmex Inostics, Inc.) and Guardant360 CDx (Guardant Health, Inc) assay panel. The assay panels were utilized to test the existence of activating AR-LBD mutations including L702H, V716M, V716L, W742C, W742L, H875Y, F877L, T878A, T878S, D891Y, M896T and M896V.

[2] = system: Patients with progressive mCRPC; assay: Clinical study of compound (1A) in progressive mCRPC patients: PSA change from baseline by activating AR gene alteration status; assay type: in vivo, human; conditions: for subjects with PSA decline of ≥50% (PSA response): oral 10-150 mg daily with corticosteroids, on ADT, prior ARSi
Text: Patients with progressive mCRPC were enrolled in the clinical trial to study the effect of a CYP11A1 inhibitor 2-(isoindolin-2-ylmethyl)-5-((1-(methylsulfonyl)-piperidin-4-yl)methoxy)-4H-pyran-4-one (1A). The patients were on ADT therapy and had previously received androgen receptor signalling inhibitor (ARSi) therapy and chemotherapy, or were ineligible for chemotherapy. Five different daily dose levels of compound (1A) with dexamethasone and fludrocortisone were given orally to 27 patients in the dose escalation/de-escalation part. Corticosteroid doses were allowed to be adjusted during the trial based on the subject's clinical condition. The daily doses were 10 mg (5 mg b.i.d), 30 mg (15 mg b.i.d.), 50 mg (25 mg b.i.d), 100 mg (50 mg b.i.d.), and 150 mg (75 mg b.i.d.). In a separate dosing evaluation part, once daily dosing of 25 mg of compound (1A), and two different glucocorticoid replacement therapies, hydrocortisone and prednisone, were evaluated in 14 patients. Subjects were allowed to continue the therapy until disease progression or intolerable toxicity. Anti-tumour activity was determined by measuring change in the PSA (prostate-specific antigen) value in PSA evaluable patient population (n=37, at least 4-week value available). A decrease in the PSA value indicates anti-tumour activity. PSA response in a patient was defined as at least 50% decline from the baseline PSA value.
as §1, with “activating AR-LBD point mutations including” for “activating AR-LBD mutations including”

SMILES | subjects with a PSA response (decline of ≥50%) that were activating AR gene alteration positive ([1]; 6 out of 6 PSA responders) | subjects with PSA decline of ≥50% (PSA response) ([1]; subjects with activating AR gene alteration (6 out of 17)) | subjects with PSA decline of ≥50% (PSA response) ([1]; subjects without an activating AR gene alteration (0 out of 8)) | anti-tumour activity (PSA change) in subjects with versus without activating AR gene alteration ([1]; with alteration n=17 compared to without n=8) | subjects with a PSA response (decline of ≥50%) that were activating AR gene alteration positive ([2]; 12 out of 13 PSA responders) | subjects with PSA decline of ≥50% (PSA response) ([2]; subjects with activating AR gene alteration (12 out of 17)) | subjects with PSA decline of ≥50% (PSA response) ([2]; subjects without an activating AR gene alteration (1 out of 20)) | anti-tumour activity (PSA change) in subjects with versus without activating AR gene alteration ([2]; with alteration n=17 compared to without n=20)
CS(=O)(=O)N1CCC(COc2coc(CN3Cc4ccc(C(F)(F)F)cc4C3)cc2=O)CC1 [1B, 5-((1-(methylsulfonyl)piperidin-4-yl)methoxy)-2-((5-(trifluoromethyl)isoindolin-2-yl)methyl)-4H-pyran-4-one] | 100% | 35.3% | 0% | substantially higher |  |  |  | 
CS(=O)(=O)N1CCC(COc2coc(CN3Cc4ccccc4C3)cc2=O)CC1 [1A, 2-(isoindolin-2-ylmethyl)-5-((1-(methylsulfonyl)piperidin-4-yl)methoxy)-4H-pyran-4-one] |  |  |  |  | 92.3% | 70.6% | 5.0% | substantially higher
